Some test systems named below: UO-31; HT-29; SNB-75; MOLT-4; RPMI-8226; HCC 2998; HOP-62; MCF7; KM12; T47D; HCT-116; 786-0; A549; MDA-MB-435; HL-60; COLO 205; HOP-92; UACC-62; NCI-H522; MDA-MB-231.
Common to all, as to assay: DTP human tumour cell line panel, 48 h

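48-hour exposure; five concentrations; linearly interpolated endpoints. At the GI50, growth is halved.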 Activity calls are given as the source filed them. Rule as the data show it: active = GI50 up to about 1.1 µM and inactive = higher.

With `CCCCCCCCCCCC(=O)OC[C@@H](C[As](=O)(O)O)OC(=O)CCCCCCCCCCC`, the GI50 is 14.8 µM (inactive) in the experiment on UO-31; 9.82 µM (inactive) in the experiment on HT-29; 3.82 µM (inactive) in the experiment with SNB-75; 5.51 µM (inactive) in the experiment with MOLT-4; 6.87 µM (inactive) in the experiment on RPMI-8226; 7.57 µM (inactive) with HCC 2998. Moreover, the GI50 is 9.95 µM (inactive) in the experiment with HOP-62; 2.8 µM (inactive) with MCF7; 5.02 µM (inactive) in the experiment on KM12; 12.6 µM (inactive) with T47D; 8.45 µM (inactive) in the experiment on HCT-116; 13.4 µM (inactive) with 786-0. In addition, the GI50 with A549 is 14.2 µM (inactive); in the experiment with MDA-MB-435 it was 3.85 µM (inactive); with HL-60, 2.95 µM (inactive); in the experiment with COLO 205 it was 17 µM (inactive); in the experiment with HOP-92 it was 1.71 µM (inactive); with UACC-62 it was 2.52 µM (inactive). Also, the values for the GI50 in the experiment with NCI-H522 and in the experiment on MDA-MB-231 were 2.47 µM (inactive) and 3.52 µM (inactive), respectively.

Regarding `C/C(=N/NC(=S)Nc1cccc(Cl)c1)c1cccc(/C(C)=N\NC(=S)Nc2cccc(Cl)c2)n1`, the GI50 is 1.67 µM (inactive) in the experiment on UO-31; 2.27 µM (inactive) in the experiment with HT-29; 2.58 µM (inactive) with SNB-75; 2.69 µM (inactive) in the experiment on MOLT-4; 3.05 µM (inactive) in the experiment with RPMI-8226; 6.85 µM (inactive) with HCC 2998. For the same compound, the GI50 in the experiment with HOP-62 was 1.15 µM (inactive); with MCF7 it was 1.99 µM (inactive); with KM12, 3.52 µM (inactive); in the experiment on T47D, 3.48 µM (inactive); with HCT-116 it was 2.4 µM (inactive); with 786-0, 0.893 µM (active). Moreover, the GI50 is 2.96 µM (inactive) with A549; 6.87 µM (inactive) in the experiment with MDA-MB-435; 1.22 µM (inactive) in the experiment with HL-60; 1.35 µM (inactive) in the experiment on COLO 205; 3.65 µM (inactive) with HOP-92; 2.1 µM (inactive) in the experiment on UACC-62. For the same compound, the GI50 was 3.03 µM (inactive) in the experiment with NCI-H522 and 2.69 µM (inactive) in the experiment with MDA-MB-231.

For the compound `Cc1nn(C(=O)c2ccc(Cl)cc2)c2c1C(c1ccccc1[N+](=O)[O-])SC(=N)N2` (stereo not drawn), the GI50 in the experiment on HT-29, in the experiment on SNB-75, in the experiment with MOLT-4, with RPMI-8226, with HCC 2998 and with HOP-62 was > 10 µM (inactive) each time. In addition, the GI50 in the experiment with MCF7, in the experiment on KM12, in the experiment on T47D, in the experiment on HCT-116, with 786-0 and in the experiment on A549 was > 10 µM (inactive) throughout. Further, the GI50 with MDA-MB-435, in the experiment with HL-60, with COLO 205, in the experiment on HOP-92, with UACC-62 and in the experiment with NCI-H522 was > 10 µM (inactive) in each case. Also, the GI50 with MDA-MB-231 was > 10 µM (inactive).

For the compound `O=c1c2cc3c(cc2[nH]c2ncccc12)OCO3`, the GI50 with HT-29, with SNB-75, in the experiment with MOLT-4, in the experiment on RPMI-8226, in the experiment with HCC 2998 and with HOP-62 was > 10 µM (inactive) each time. Further, the GI50 with MCF7, with KM12, with T47D, with HCT-116, in the experiment with 786-0 and in the experiment with A549 was > 10 µM (inactive) in each case. Besides, the GI50 in the experiment with MDA-MB-435, in the experiment with HL-60, in the experiment with COLO 205, in the experiment on HOP-92, with UACC-62 and with NCI-H522 was > 10 µM (inactive) each time. In the experiment on MDA-MB-231, the GI50 is > 10 µM (inactive).

The values are drawn from ChEMBL document CHEMBL1201862, “PubChem BioAssay data set” (2004).
